Assay results: publication doi:10.1101/2020.04.09.034306v1 (biorxiv, 2020)

Biological target: T1, ACE (angiotensin-I converting enzyme, from rabbit lung) (Oryctolagus cuniculus, UniProt P12822)
T1 sequence (P12822 34-1310): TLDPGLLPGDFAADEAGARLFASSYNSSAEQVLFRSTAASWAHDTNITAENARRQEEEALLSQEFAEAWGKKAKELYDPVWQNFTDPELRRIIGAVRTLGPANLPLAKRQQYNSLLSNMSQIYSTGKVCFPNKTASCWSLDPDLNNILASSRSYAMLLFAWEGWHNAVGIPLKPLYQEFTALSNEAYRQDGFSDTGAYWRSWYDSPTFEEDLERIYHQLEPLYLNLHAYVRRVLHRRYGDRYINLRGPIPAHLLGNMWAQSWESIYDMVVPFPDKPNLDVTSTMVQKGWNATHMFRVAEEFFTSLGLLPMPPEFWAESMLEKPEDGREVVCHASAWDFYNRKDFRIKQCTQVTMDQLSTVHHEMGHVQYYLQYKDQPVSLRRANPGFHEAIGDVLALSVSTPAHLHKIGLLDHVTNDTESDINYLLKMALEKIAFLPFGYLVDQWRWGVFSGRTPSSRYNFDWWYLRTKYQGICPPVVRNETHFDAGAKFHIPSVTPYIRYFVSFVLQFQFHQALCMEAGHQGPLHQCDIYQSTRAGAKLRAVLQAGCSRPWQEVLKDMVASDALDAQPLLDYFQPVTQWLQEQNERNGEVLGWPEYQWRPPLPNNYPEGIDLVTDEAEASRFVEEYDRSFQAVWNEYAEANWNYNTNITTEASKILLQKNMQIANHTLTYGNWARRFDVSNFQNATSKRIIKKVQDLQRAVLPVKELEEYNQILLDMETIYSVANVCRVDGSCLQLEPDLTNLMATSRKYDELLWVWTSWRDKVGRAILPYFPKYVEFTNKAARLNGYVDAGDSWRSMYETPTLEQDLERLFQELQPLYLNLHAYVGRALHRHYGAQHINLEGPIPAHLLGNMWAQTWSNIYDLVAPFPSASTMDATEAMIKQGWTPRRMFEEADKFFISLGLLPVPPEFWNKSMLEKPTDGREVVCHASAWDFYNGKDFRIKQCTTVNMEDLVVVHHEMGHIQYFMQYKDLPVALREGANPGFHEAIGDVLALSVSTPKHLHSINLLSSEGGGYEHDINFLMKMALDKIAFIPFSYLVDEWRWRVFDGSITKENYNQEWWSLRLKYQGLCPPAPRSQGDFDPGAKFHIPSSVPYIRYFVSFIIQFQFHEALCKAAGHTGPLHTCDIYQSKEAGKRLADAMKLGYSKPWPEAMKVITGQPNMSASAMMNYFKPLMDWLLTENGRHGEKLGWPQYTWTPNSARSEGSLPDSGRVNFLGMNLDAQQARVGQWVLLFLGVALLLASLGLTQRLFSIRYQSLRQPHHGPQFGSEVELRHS
Test: hippuric acid release from HHL, cyanuric chloride colour at […] nm
Type: biochemical

IC50: 764 nM
SMILES: NCCCC[C@H](N[C@@H](CCc1ccccc1)C(=O)O)C(=O)N1CCC[C@H]1C(=O)O [Lisinopril]
